From patent US6677368B2, “4-aryl substituted indolinones” (Sugen, Inc., priority 2000, dated 2004)

Tests used:
[1] = molecular target: T1, MET (Homo sapiens, UniProt P08581); assay: MET transphosphorylation assay; format: biochemical; conditions: GST fusion protein containing the Met kinase domain, poly(glu-tyr) substrate
T1 construct: Purified GST fusion protein containing the Met kinase domain, SUGEN, Inc
Protocol: MET TRANSPHOSPHORYLATION ASSAY
This assay is used to measure phosphotyrosine levels on a poly(glutamic acid:tyrosine, 4:1) substrate as a means for identifying agonists/antagonists of met transphosphorylation of the substrate.
1. Corning 96-well ELISA plates, Corning Catalog #25805-96.
2. Poly(glu-tyr), 4:1, Sigma, Cat. No; P 0275.
5. Blocking Buffer: Dissolve 25 g Bovine Serum Albumin, Sigma Cat. No A-7888, in 500 ml PBS, filter through a […] filter.
6. Purified GST fusion protein containing the Met kinase domain, SUGEN, Inc.
8. 10% aqueous (MilliQue H2O) DMSO.
9. 10 mM aqueous (dH2O) Adenosine-5′-triphosphate, Sigma Cat. No. A-5394.
10. 2×Kinase Dilution Buffer: for 100 ml, mix 10 mL 1M HEPES at pH 7.5 with 0.4 mL 5% BSA/PBS, 0.2 mL 0.1 M sodium orthovanadate and 1 mL 5M sodium chloride in 88.4 mL dH2O.
11. 4×ATP Reaction Mixture: for 10 mL, mix 0.4 mL 1 M manganese chloride and 0.02 mL 0.1 M ATP in 9.56 mL dH2O.
12. 4×Negative Controls Mixture: for 10 mL, mix 0.4 mL 1 M manganese chloride in 9.6 mL dH2O.
13. NUNC 96-well V bottom polypropylene plates, Applied Scientific Catalog #S-72092
15. Antibody Dilution Buffer: for 100 mL, mix 10 mL 5% BSA/PBS, 0.5 mL 5% Carnation® Instant Milk in PBS and 0.1 mL 0.1 M sodium orthovanadate in 88.4 mL TBST.
16. Rabbit polyclonal antophosphotyrosine antibody, SUGEN, Inc.
17. Goat anti-rabbit horseradish peroxidase conjugated antibody, Biosource, Inc.
18. ABTS Solution: for 1 L, mix 19.21 g citric acid, 35.49 g Na2HPO4 and 500 mg ABTS with sufficient dH2O to make 1 L.
19. ABTS/H2O2: mix 15 mL ABST solution with 2μL H2O2 five minutes before use.
1. Coat ELISA plates with 2 μg Poly(Glu-Tyr) in 100 μL PBS, hold overnight at 4° C.
2. Block plate with 150 μL of 5% BSA/PBS for 60 min.
3. Wash plate twice with PBS then once with 50 mM Hepes buffer pH 7.4.
4. Add 50 μl of the diluted kinase to all wells. (Purified kinase is diluted with Kinase Dilution Buffer. Final concentration should be 10 ng/well.)
5. Add 25 μL of the test compound (in 4% DMSO) or DMSO alone (4% in dH2O) for controls to plate.
6. Incubate the kinase/compound mixture for 15 minutes.
7. Add 25 μL of 40 mM MnCl2 to the negative control wells.
8. Add 25 μL ATP/MnCl2 mixture to the all other wells (except the negative controls). Incubate for 5 min.
9. Add 25 μL 500 mM EDTA to stop reaction.
10. Wash plate 3× with TBST.
11. Add 100 μL rabbit polyclonal anti-Ptyr diluted 1:10,000 in Antibody Dilution Buffer to each well. Incubate, with shaking, at room temperature for one hour.
12. Wash plate 3× with TBST.
13. Dilute Biosource HRP conjugated anti-rabbit antibody 1:6,000 in Antibody Dilution buffer. Add 100 μL per well and incubate at room temperature, with shaking, for one hour.
14. Wash plate 1× with PBS.
15. Add 100 μl of ABTS/H2O2 solution to each well.
16. If necessary, stop the development reaction with the addition of 100 μl of 0.2M HCl per well.
17. Read plate on Dynatech MR7000 ELISA reader with the test filter at 410 nM and the reference filter at 630 nM.

[2] = molecular target: T2, SRC (Homo sapiens, UniProt P12931); assay: Src transphosphorylation assay; format: biochemical; conditions: recombinant human Src, poly(Glu-Tyr) substrate
T2 construct: purchased UBI 14-117
T2 sequence (P12931 whole entry): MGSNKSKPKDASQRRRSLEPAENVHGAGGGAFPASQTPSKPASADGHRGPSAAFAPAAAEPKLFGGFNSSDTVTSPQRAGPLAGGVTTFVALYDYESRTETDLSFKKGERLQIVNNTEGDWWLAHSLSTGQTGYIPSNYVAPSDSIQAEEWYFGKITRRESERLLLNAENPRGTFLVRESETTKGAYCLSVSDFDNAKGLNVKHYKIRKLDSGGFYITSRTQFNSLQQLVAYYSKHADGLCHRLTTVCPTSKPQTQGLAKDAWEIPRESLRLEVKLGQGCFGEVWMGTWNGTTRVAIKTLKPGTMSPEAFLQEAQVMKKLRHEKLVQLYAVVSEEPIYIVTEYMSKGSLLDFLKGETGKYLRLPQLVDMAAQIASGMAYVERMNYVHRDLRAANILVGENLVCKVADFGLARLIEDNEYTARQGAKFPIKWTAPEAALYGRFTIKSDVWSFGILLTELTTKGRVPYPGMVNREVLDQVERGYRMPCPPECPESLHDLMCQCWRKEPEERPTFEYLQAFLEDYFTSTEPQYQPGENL
Protocol: Src Transphosphorylation Assay
This assay is used to screen for inhibitors of the tyrosine kinase Src.
1. Coating buffer: PBS containing sodium azide (0.2 mg/ml).
3. Wash buffer: PBS containing 0.05% v/v Tween 20 (PBS-TWEEN)
5. ATP (40 [M)+MgCl2 (80 mM) in distilled water.
6. MgCl2 (80 mM) in distilled water (for no ATP blanks).
7. Test compounds, 10 mM in DMSO.
8. Assay Buffer: 100 mM HEPES, pH 7.4, containing 2 mM DTT, 0.2 mM sodium orthovanadate and 0.2 mgs/ml BSA.
9. Partially purified recombinant human Src (UBI (14-117)
10. Anti-phosphotyrosine (SUGEN rabbit polyclonal anti-PY).
11. HRP-linked goat anti-rabbit Ig (Biosource International #6430)
12. HRP substrate ABTS or Pierce Peroxidase substrate.
13. Corning ELISA plates.
1. Coat plates with 100 μl of 20 μg/ml poly(Glu-Tyr) (Sigma Cat. No.P0275) containing 0.01% sodium azide. Hold overnight at 4° C.
2. Block with 1% BSA at 100 μl/well for one hour at room temperature.
3. Plate test compounds (10 mM in DMSO) at 2 ul/well on a Costar plate ready for dilution with dH2O and plating to reaction plates.
4. Dilute Src kinase 1:10,000 in Reaction Buffer, for 5 plates prepare 25 ml as follows: 2.5 mls 1M HEPES pH7.4 (stored sterile at 4° C.), 21.85 ml distilled water, 0.1 ml 5% BSA, 0.5 ml 10 mM sodium orthovanadate (stored sterile at 4° C.), 50 μl 1.0M DTT (stored frozen at […]), and 2.5 μl Src Kinase (stored frozen at −80° C.).
5. Add 48 μl of distilled water to the 2 ∥l of each compound in the dilution plate then add 25 μl/well of this to the reaction plate.
6. Add 50 μl of […] to each reaction buffer well and then 25 μl ATP-MgCl2/well (MgCl2 only to no ATP blanks). Incubate at room temperature for 15 minutes on plate shaker. Stop reaction by adding 25 μl of 0.5M EDTA to each well.
7. Wash 4× with PBS-TWEEN.
8. […] Incubate with continuous shaking at room temperature for one hour.
9. Wash plates 4× with PBS-TWEEN.
10. Add 100 μl HPP-linked Ig (1:5,000) in PBS-TWEEN containing 0.5% BSA, 0.025% Non-fat milk powder, 100 μM sodium orthovanadate. Incubate with shaking at room temperature for one hour.
11. Wash plates 4× with PBS-TWEEN and then once with PBS.
12. Develop plate using ABTS or other peroxidase substrate.

T1 sequence (P08581 1078-1345 limits assumed): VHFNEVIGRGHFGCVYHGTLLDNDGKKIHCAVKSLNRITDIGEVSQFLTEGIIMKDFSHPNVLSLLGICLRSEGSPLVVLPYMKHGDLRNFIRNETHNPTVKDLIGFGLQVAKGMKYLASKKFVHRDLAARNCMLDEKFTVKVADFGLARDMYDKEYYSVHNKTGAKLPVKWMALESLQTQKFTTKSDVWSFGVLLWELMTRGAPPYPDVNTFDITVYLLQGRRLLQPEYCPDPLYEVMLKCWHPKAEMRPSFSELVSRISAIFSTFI

Cc1cc(C(=O)NCCN2CCCC2)c(/C=C2\C(=O)Nc3cccc(-c4ccc(F)c(Cl)c4)c32)[nH]1 [Example 119, 2-[4-(3-Chloro-4-fluoro-phenyl)-2-oxo-1,2-dihydro-indol-3-ylidenemethyl]-5-methyl-1H-pyrrole-3-carboxylic Acid (2-Pyrrolidin-1-yl-ethyl)-amide]
IC50 [1]: 59 nM
IC50 [2]: 8610 nM

CCN(CC)CCNC(=O)c1c(C)[nH]c(/C=C2\C(=O)Nc3cccc(-c4ccc(OC(F)(F)F)cc4)c32)c1C [Example 140, 2,4-Dimethyl-5-[2-oxo-4-(4-trifluoromethoxy-phenyl)-1,2-dihydro-indol-3-ylidenemethyl]-1H-pyrrole-3-carboxylic Acid (2-Diethylamino-ethyl)-amide]
IC50 [1]: 680 nM
IC50 [2]: 4310 nM
